The record followed here is PubChem BioAssay (NCI).

Test in all cases: inhibition of tumour cell growth, NCI panel, 48 h
Test [1] has as its system HCC-2998 colon.
The subject of test [2] is HL-60(TB) leukemia.
Test [3] has as its system EKVX NSCLC.
Test [4] relates to TK-10 renal.
Test [5] relates to SF-539 CNS.
Test [6] deals with MCF7 breast.
The test system of test [7] is UACC-257 melanoma.
In test [8] the test system is OVCAR-4 ovarian.
Test [9] deals with HOP-62 NSCLC.
Test [10] deals with CCRF-CEM leukemia.

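96-well plates; 48 h exposure; 5 concentrations. Endpoints by linear interpolation between flanking doses. Not reached: highest tested concentration assigned. GI50 marks 50% less growth. Definition used: TGI = concentration required for complete inhibition of growth.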

On to `COc1cc(/C=C/C(=O)c2c(C)nc3ccccc3c2/C=C/c2ccc(C)cc2)cc(OC)c1OC`, for which the GI50 was 1.73 µM in [1]; 2.22 µM in test [2]; 2.32 µM in [3]; 5.37 µM in test [4]; 1.92 µM in [5]; 1.39 µM in test [6]. Further, the GI50 was 2.71 µM in [7], 5.62 µM in test [8], 3.1 µM in test [9] and 2.83 µM in test [10]. The TGI turned out to be 3.26 µM in test [1]; 6.29 µM in [2]; 6.32 µM in [3]; 67 µM in test [4]; 3.69 µM in test [5]; 3.51 µM in [6]. Moreover, the TGI in test [7] is 7.32 µM; in test [8] it was 52.9 µM; in [9], 9.94 µM; in [10], more than 100 µM.
For the compound `O=C(c1ccccc1)C(Br)C(Br)c1cccc([N+](=O)[O-])c1` (stereo not given), the GI50 was 1.57 µM in [1]; 2.04 µM in [2]; 16.4 µM in test [3]; 2.81 µM in test [4]; 2.32 µM in test [5]; 1.28 µM in [6]. Moreover, the GI50 in test [7] is 1.8 µM; in test [8] it was 1.49 µM; in test [9], 4.26 µM; in [10] it was 0.574 µM. Further, the TGI in test [1] was determined as 2.95 µM; in [2], 4.68 µM; in test [3], 34.5 µM; in test [4], 8.31 µM; in test [5], 5.05 µM; in test [6], 3.63 µM. In addition, the TGI in [7] amounted to 3.89 µM; in test [8], 2.81 µM; in test [9], 14.4 µM; in test [10] it was 2.78 µM.
With `COC(=O)CCC1CCC(c2cc(F)ccc2F)(S(=O)(=O)c2ccc(Cl)cc2)CC1` (stereo not given), the GI50 in test [1] was more than 100 µM; in [2], 45.3 µM; in [3], 61.2 µM; in test [4], more than 100 µM; in test [5], more than 100 µM; in test [6], 70.2 µM. In addition, the GI50 was 48.9 µM in [7], 45.5 µM in [8], more than 100 µM in test [9] and more than 100 µM in [10]. In addition, the TGI in [1], in test [2], in test [3], in test [4], in [5] and in test [6] was more than 100 µM each time. For the same compound, the TGI in test [7], in test [8], in test [9] and in test [10] was more than 100 µM in each case.
Consider `Cc1ccc2c(c1)C(C)Cc1c(Cl)ncnc1N2C` (stereo not given), for which the GI50 was 3.54 µM in test [1]; 3.07 µM in test [2]; 2.33 µM in [3]; 4.32 µM in test [4]; 3.85 µM in test [5]; 2.96 µM in test [6]. Also, the GI50 in [7] is 4.29 µM; in test [8], 3.06 µM; in [9] it was 3.74 µM; in [10], 3.82 µM. Moreover, the TGI in test [1] was determined as 18.3 µM; in test [2] it was 71.8 µM; in test [3] it was 26.3 µM; in test [4] it was 34.4 µM; in test [5], 19 µM; in [6], 11.7 µM. In addition, the TGI was 46.2 µM in test [7], more than 100 µM in [8], 22.2 µM in test [9] and more than 100 µM in [10].
For the compound `N#CC1=C(N)Oc2c(sc3c(Br)cccc23)C1c1ccc(Br)cc1` (stereo not given), the GI50 was 1.77 µM in test [1]; 0.28 µM in test [2]; 3.31 µM in [3]; 0.986 µM in [4]; 0.793 µM in test [5]; 0.382 µM in test [6]. Further, the GI50 in test [7] is 1.19 µM; in test [8], 1.46 µM; in test [9], 0.41 µM; in [10], 0.496 µM. Also, the TGI in [1] is 7.33 µM; in test [2], 0.788 µM; in test [3] it was 20.5 µM; in test [4] it was 2.57 µM; in test [5], 3.02 µM; in test [6], 12.4 µM. Also, the TGI in [7] was found to be 15.4 µM; in test [8], 15.5 µM; in test [9] it was 2.62 µM; in test [10], 13.6 µM.
For `Cc1cc(=O)[nH]c2cc3c(c4c(n3Cc3ccc(Cl)cc3Cl)CC(C)(C)CC4=O)c(O)c12`, the GI50 in test [1] is more than 100 µM; in test [2] it was more than 100 µM; in test [3], 36.4 µM; in test [4], more than 100 µM; in test [5] it was more than 100 µM; in [6], more than 100 µM. Moreover, the GI50 in test [7] was more than 100 µM; in test [8], more than 100 µM; in [9] it was 77.7 µM; in test [10], 82.3 µM. Also, the TGI in test [1], in test [2], in [3], in test [4], in test [5] and in [6] was more than 100 µM each time. In addition, the TGI in [7], in [8], in test [9] and in [10] was more than 100 µM each time.
For the compound `CCCCCCCCCCC(C(O)c1ccccc1)N1CCCCC1` (stereo not given), the GI50 in test [1] was 1.61 µM; in test [2], 1.96 µM; in [3], 2.09 µM; in [4] it was 2.16 µM; in test [5], 2.06 µM; in [6] it was 1.87 µM. Also, the GI50 in test [7] is 2.02 µM; in [8], 3.66 µM; in [9] it was 1.91 µM; in test [10], 1.97 µM. For the same compound, the TGI in [1] stood at 3.07 µM; in test [2], 4.25 µM; in test [3] it was 6.08 µM; in test [4], 4.83 µM; in test [5], 3.84 µM; in test [6], 3.43 µM. Besides, the TGI worked out at 4.28 µM in test [7], 13.2 µM in [8], 3.78 µM in [9] and 7.77 µM in test [10].
